ChEMBL document CHEMBL5214990, “Novel Aryl Alkamidazole Derivatives as Multifunctional Antifungal Inhibitors: Design, Synthesis, and Biological Evaluation” (J Med Chem, 2022)
In brackets after ≈: the same amount, converted by molar mass. Activity calls are given as the source filed them. The calls are words filed in the database; no cut-off is given here.

What was measured:
[1] = system: Candida albicans; test: Antifungal activity against Candida albicans ATCC SC5314 assessed as inhibition of fungal growth measured after 72 hrs by CLSI based liquid medium dilution method; type: functional
[2] = system: Cryptococcus neoformans; test: Antifungal activity against Cryptococcus neoformans assessed as inhibition of fungal growth measured after 72 hrs by CLSI based liquid medium dilution method; type: functional
[3] = system: Pichia kudriavzevii; test: Antifungal activity against Candida krusei ATCC 6258 assessed as inhibition of fungal growth measured after 72 hrs by CLSI based liquid medium dilution method; type: functional
[4] = system: Candida tropicalis; test: Antifungal activity against Candida tropicalis ATCC 1369 assessed as inhibition of fungal growth measured after 72 hrs by CLSI based liquid medium dilution method; type: functional
[5] = system: Aspergillus fumigatus; test: Antifungal activity against Aspergillus fumigatus KM8001 assessed as inhibition of fungal growth measured after 72 hrs by CLSI based liquid medium dilution method; type: functional
[6] = system: Candida albicans; test: Antifungal activity against fluconazole-resistant Candida albicans 17# assessed as inhibition of fungal growth measured after 72 hrs by CLSI based liquid medium dilution method; type: functional
[7] = system: Candida albicans; test: Antifungal activity against fluconazole-resistant Candida albicans CaR assessed as inhibition of fungal growth measured after 72 hrs by CLSI based liquid medium dilution method; type: functional
[8] = system: Candida albicans; test: Antifungal activity against fluconazole-resistant Candida albicans 632 assessed as inhibition of fungal growth measured after 72 hrs by CLSI based liquid medium dilution method; type: functional
[9] = system: Candida albicans; test: Antifungal activity against fluconazole-resistant Candida albicans 901 assessed as inhibition of fungal growth measured after 72 hrs by CLSI based liquid medium dilution method; type: functional
[10] = system: Candida albicans; test: Antifungal activity against fluconazole-resistant Candida albicans 904 assessed as inhibition of fungal growth measured after 72 hrs by CLSI based liquid medium dilution method; type: functional
[11] = biological target: T1, Lanosterol 14-alpha demethylase (Candida albicans (strain SC5314 / ATCC MYA-2876) (Yeast), UniProt P10613); test: Inhibition of CYP51 in Candida albicans ATCC SC5314 assessed as reduction in substrate consumption using lanosterol as substrate preincubated for 30 mins followed by substrate addition and measured after 60 mins by HPLC analysis
T1 sequence (P10613 whole entry): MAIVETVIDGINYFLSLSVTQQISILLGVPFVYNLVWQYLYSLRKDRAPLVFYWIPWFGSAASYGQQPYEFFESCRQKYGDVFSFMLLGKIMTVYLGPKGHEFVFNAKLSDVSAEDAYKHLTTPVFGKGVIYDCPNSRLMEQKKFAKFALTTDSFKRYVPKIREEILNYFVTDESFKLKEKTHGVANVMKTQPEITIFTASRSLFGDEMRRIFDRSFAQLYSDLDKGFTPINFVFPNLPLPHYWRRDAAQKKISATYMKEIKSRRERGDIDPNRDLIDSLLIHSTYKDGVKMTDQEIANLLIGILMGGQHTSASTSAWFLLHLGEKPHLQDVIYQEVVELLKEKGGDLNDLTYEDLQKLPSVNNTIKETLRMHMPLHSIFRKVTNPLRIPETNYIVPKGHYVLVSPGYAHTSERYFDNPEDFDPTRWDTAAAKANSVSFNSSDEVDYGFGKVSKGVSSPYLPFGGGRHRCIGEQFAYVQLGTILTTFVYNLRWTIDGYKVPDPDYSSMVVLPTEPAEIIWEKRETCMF

[12] = biological target: T2, Prostaglandin G/H synthase 2 (Homo sapiens, UniProt P35354); test: Inhibition of COX2 (unknown origin) assessed as reduction in PGF2alpha content using arachidonic acid as substrate preincubated for 10 mins followed by substrate addition and measured after 2 mins by enzyme immunoassay
T2 sequence (P35354 whole entry): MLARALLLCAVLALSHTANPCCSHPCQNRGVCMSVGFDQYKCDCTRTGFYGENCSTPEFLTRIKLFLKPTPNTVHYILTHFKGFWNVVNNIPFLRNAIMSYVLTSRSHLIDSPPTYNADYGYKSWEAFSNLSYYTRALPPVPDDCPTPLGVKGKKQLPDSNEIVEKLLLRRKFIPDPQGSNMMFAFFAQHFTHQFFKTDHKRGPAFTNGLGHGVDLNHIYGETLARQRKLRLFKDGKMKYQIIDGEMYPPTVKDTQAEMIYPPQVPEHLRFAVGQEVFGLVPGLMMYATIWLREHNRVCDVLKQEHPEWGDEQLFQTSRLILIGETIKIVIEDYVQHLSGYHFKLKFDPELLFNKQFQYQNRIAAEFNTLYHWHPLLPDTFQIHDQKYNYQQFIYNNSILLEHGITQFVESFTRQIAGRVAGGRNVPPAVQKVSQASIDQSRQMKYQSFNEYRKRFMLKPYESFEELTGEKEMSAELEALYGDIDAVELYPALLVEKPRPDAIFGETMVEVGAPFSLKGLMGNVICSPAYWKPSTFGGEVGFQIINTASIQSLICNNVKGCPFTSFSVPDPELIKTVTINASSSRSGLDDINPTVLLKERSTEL

[13] = Drug uptake in Candida albicans ATCC SC5314 assessed as increase in red and green fluorescence intensity measured after 10 hrs by PI/Hoechst […] staining based fluorescence microscopy; type: ADME
[14] = system: Candida albicans; test: Antifungal activity against Candida albicans assessed as inhibition of fungal cell proliferation by measuring decrease in fungal cell density measured after 24 hrs; type: functional, organism-based
[15] = Increase in intracellular ROS level in Candida albicans assessed as fold increase in fluorescence intensity measured after 12 hrs by fluorescence microscopic analysis relative to control; type: functional
[16] = Increase in intracellular ROS level in Cryptococcus neoformans assessed as fold increase in fluorescence intensity measured after 12 hrs by fluorescence microscopic analysis relative to control; type: functional
[17] = system: Candida albicans; test: Induction of mitochondrial membrane depolarization in Candida albicans assessed as fungal cells with depolarized mitochondria measured after 24 hrs by JC-1 staining based flow cytometry (reference value: 3.22%); type: functional
[18] = system: Candida albicans; test: Induction of mitochondrial membrane depolarization in Candida albicans assessed as fungal cells with intact mitochondria measured after 24 hrs by JC-1 staining based flow cytometry (reference value: 95.9%); type: functional
[19] = system: Candida albicans; test: Induction of apoptosis in Candida albicans assessed as viable cells measured after 24 hrs by Annexin V-FITC/PI staining based flow cytometry (reference value: 95.7%); type: functional
[20] = system: Candida albicans; test: Induction of apoptosis in Candida albicans assessed as early apoptotic cells measured after 24 hrs by Annexin V-FITC/PI staining based flow cytometry (reference value: 0.46%); type: functional
[21] = system: Candida albicans; test: Induction of apoptosis in Candida albicans assessed as late apoptotic cells measured after 24 hrs by Annexin V-FITC/PI staining based flow cytometry (reference value: 0.44%); type: functional
[22] = system: Candida albicans; test: Induction of apoptosis in Candida albicans assessed as necrotic cells measured after 24 hrs by Annexin V-FITC/PI staining based flow cytometry (reference value: 3.37%); type: functional
[23] = biological target: T1, Lanosterol 14-alpha demethylase; test: Inhibition of CYP51 in Candida albicans ATCC SC5314 assessed as ergosterol content at 4 ug/ml measured after 48 hrs by GC-MS analysis (reference value: 95.61%); design: scale not given: the % may be the effect or the level left; conditions: at 4 µg/mL
[24] = biological target: T1, Lanosterol 14-alpha demethylase; test: Inhibition of CYP51 in Candida albicans ATCC SC5314 assessed as lanosterol content at 4 ug/ml measured after 48 hrs by GC-MS analysis; design: scale not given: the % may be the effect or the level left; conditions: at 4 µg/mL
[25] = biological target: T1, Lanosterol 14-alpha demethylase; test: Inhibition of CYP51 in Candida albicans ATCC SC5314 assessed as eburicol content at 4 ug/ml measured after 48 hrs by GC-MS analysis (reference value: 1.84%); design: scale not given: the % may be the effect or the level left; conditions: at 4 µg/mL
[26] = biological target: T1, Lanosterol 14-alpha demethylase; test: Inhibition of CYP51 in Candida albicans ATCC SC5314 assessed as unknown sterol content at 4 ug/ml measured after 48 hrs by GC-MS analysis; design: scale not given: the % may be the effect or the level left; conditions: at 4 µg/mL

Molecule `C[C@H](C(=O)OC(Cn1ccnc1)c1ccc(F)cc1)c1ccc(-c2ccccc2)c(F)c1` (stereo partly specified) has an MIC50 [1] of 0.25 µg/mL (≈ 0.578 µM), an MIC50 [2] of 0.5 µg/mL (≈ 1.16 µM) and an MIC50 [3] of 0.125 µg/mL (≈ 0.289 µM). The MIC50 [4] was 0.25 µg/mL (≈ 0.578 µM), the MIC50 [5] was 2 µg/mL (≈ 4.62 µM) and the MIC50 [6] was 4 µg/mL (≈ 9.25 µM). For the same molecule, the MIC50 [7] was 2 µg/mL (≈ 4.62 µM), the MIC50 [8] was 4 µg/mL (≈ 9.25 µM) and the MIC50 [9] was 2 µg/mL (≈ 4.62 µM). It also gave an MIC50 [10] of 2 µg/mL (≈ 4.62 µM), an IC50 [11] of 350 nM and an IC50 [12] of 3760 nM. For the same molecule, the Drug uptake [13] was “Active”, the Activity [14] was “Active” and the “fold change (FC)” value [15] was 4. The “fold change (FC)” value [16] was 4, the Activity [17] was 52.9% and the Activity [18] was 46.6%. It also gave an Activity [19] of 66.2%, an Activity [20] of 0.086% and an Activity [21] of 1.06%. The Activity [22] was 32.7%, the Activity [23] was 21.84% and the Activity [24] was 33.52%. It also gave an Activity [25] of 39.58% and an Activity [26] of 5.06%.
